Legend:
human islet cells = assay: Inositol phosphate assay with dispersed human islet cells; format: cell-based
Protocol: Mouse islets were isolated and tested for stimulation of GSIS as described. Human islets were purchased from Prodo labs or were obtained from the National Institutes of Health and Juvenile Diabetes Research Foundation supported Islet Cell Resource Consortium (http://icr.coh.org). Islet inositol phosphate assays were performed on islets cells that had been dispersed with trypsin. 10,000 islet cells were plated/well of a 96-well plate and were loaded with ^3H-myo-inositol (0.5 µCi/well) in RPMI overnight prior to treatment. The next day, response to different stimuli was tested in HBSS containing 10 mM LiCl and 0.1% HSA (w/v) for 1 hour at 37°C. Accumulated ^3H-inositol phosphate was measured after capture to SPA beads. Islet perifusion experiments were performed on mouse islets loaded into a Brandel Suprafusion system. Twenty islets were size-matched and loaded per perifusion chamber. Islets were perifused in KRBH containing, sequentially, 3 mM glucose, then 3 mM glucose containing 10 µM drug, 16.7 mM glucose containing 10 µM drug and finally returned to 3 mM glucose containing 10 µM drug. Insulin was measured using an insulin ELISA kit (Alpco). Fetal rat intestinal cells were isolated from e19-day old fetuses of pregnant Sprague-Dawley rats. […] GLP-1 and GIP1 secreted into the media was measured using ELISA kits specific for GLP-1 (Linco) or GIP (Millipore).

PPAR gamma = PPAR gamma (Homo sapiens, UniProt P37231); assay: PPAR-gamma luciferase assay; format: cell-based; conditions: concentrations up to 10 µM
Excerpt: (§1) (A) GPR41 (FFAR3) aequorin assay. GPR41 was force coupled to the calcium signaling pathway by co-transfecting the cells with Gqmyri5. (B) GPR43 (FFAR2) aequorin assay. The short chain fatty acid propionate acts as a natural agonist ligand for GPR41 and GPR43. (C) GPR120 aequorin assay. The unsaturated fatty acids α-LNN and DHA act as natural agonist ligands for GPR120. (D) PPAR-gamma luciferase assay using the thiazolidinedione rosiglitazone as a positive control. […] (TIF) Click here for additional data file.

[1] = test system: wild type and GPR40 knockout mice; assay: OGTT and GLP-1 secretion in wild type and GPR40 null mice; format: in vivo, mouse; conditions: wild type mice
Protocol: (§2) All procedures on animals were approved by the Amgen San Francisco Institutional Animal Care and Use Committee (approved protocols #11–04 and #2007–00106). The Amgen San Francisco vivarium is an AAALAC accredited facility. Animals were housed under a 12-h light, 12-h dark cycle (lights-on 0600 h and lights-off 1800 h) and were allowed ad libidum access to chow and water. The HF/STZ mice were established as previously described. Briefly, C57BL/6j mice (Jackson labs) at 4 weeks of age were fed a high-fat diet (BioServ S1850, 35% fat) for 3-weeks and then injected with 95 mg/kg streptozotocin (Sigma) ip to induce beta cell dysfunction. The animals continued on the same high fat diet for 3–6 additional weeks. Animals were then randomized into treatment groups based on fasting blood glucose and insulin measures. NONcNZO10/LtJ (RCS10) male mice (Jackson labs) were used at 12-weeks of age and randomized for treatment based on fasting glucose levels. For OGTT experiments, drugs were formulated in 1% HPMC, 10% HPbCD, 1% Tween-80 and dosed via oral gavage. Glucose was administered at 2 g/kg 1-hour post drug dose by oral gavage.
For all glucose tolerance tests, glucose and insulin measurements were taken from tail vein samples at various time-points. Blood glucose values were measured on an Accu-Chek glucometer (Roche Diagnostics), while insulin levels were determined using an ELISA (Alpco).

GPR41 (FFAR3) = target: T1, GPR41 (FFAR3) (Homo sapiens, UniProt O14843); assay: GPR41 aequorin assay; format: cell-based; conditions: up to 10 µM
T1 construct: expressed in transfected cells
Excerpt: as §1

HF/STZ mice = assay: Single oral dose without glucose challenge in HF/STZ mice: GLP-1, insulin, glucose, GIP; format: in vivo, mouse; conditions: HF/STZ mice, single oral dose
Protocol: The increase in insulin secretion by GPR40 agonists is due to direct stimulation of GPR40 receptors on pancreatic β-cells, but may also be derived from stimulation of the gut peptides GLP-1 and GIP, which subsequently act on the GLP-1 and GIP G protein-coupled receptors found on pancreatic β-cells. […] No glucose challenge was performed in order to isolate the effects of the compounds alone.
as §2

GPR43 (FFAR2) = target: T2, GPR43 (FFAR2) (Homo sapiens, UniProt O15552); assay: GPR43 aequorin assay; format: cell-based; conditions: up to 10 µM
T2 construct: expressed in transfected cells
Excerpt: as §1

GLUTag cells = assay: Inositol phosphate accumulation assay in GLUTag enteroendocrine L-cell line; format: cell-based, mouse
Protocol: Increased GLP-1 and GIP would be expected to have additional benefits in type 2 diabetics. […] We tested for potential effects on incretin secretion in vitro by using cells isolated from fetal rat intestines.
(§3) GPR40 aequorin, plasmid titration, and inositol phosphate assays were performed as described. For aequorin assays, in addition to transient transfection of GPR40 into CHO cells, a CHO cell line stably expressing both GPR40 and aequorin was generated. GLUTag cells were obtained under a license from Dr. Daniel Drucker, University of Toronto. Competition binding experiments were performed using membranes prepared from A9_GPR40 cells. […] Competition binding assays were carried out in 20 mM Hepes pH 7.5, 5 mM MgCl2, 100 mM NaCl and 0.1% (w/v) free fatty acid BSA and bound radioligand was collected on 96-well GF/C filter plates.

GPR40 = target: T3, GPR40 (Homo sapiens, UniProt O14842); assay: Inositol phosphate accumulation assay in A9 cells stably expressing GPR40 (A9_GPR40); format: cell-based; conditions: inositol phosphate assay
T3 construct: expressed in transfected cells; host or cells: CHO cell line stably expressing GPR40 and aequorin
Protocol: as §3
(A) Structure of selected GPR40 agonists. (B) GPR40 agonists were tested in parallel in vitro in an inositol phosphate accumulation assay in A9 cells stably expressing GPR40. (TIF) Click here for additional data file.

mouse islets = assay: Mouse islet perifusion assay; format: cell-based; conditions: 10 µM compound
Protocol: Mouse islets were isolated and tested for stimulation of GSIS as described. Human islets were purchased from Prodo labs or were obtained from the National Institutes of Health and Juvenile Diabetes Research Foundation supported Islet Cell Resource Consortium (http://icr.coh.org). Islet inositol phosphate assays were performed on islets cells that had been dispersed with trypsin. 10,000 islet cells were plated/well of a 96-well plate and were loaded with ^3H-myo-inositol (0.5 µCi/well) in RPMI overnight prior to treatment. The next day, response to different stimuli was tested in HBSS containing 10 mM LiCl and 0.1% HSA (w/v) for 1 hour at 37°C. Accumulated ^3H-inositol phosphate was measured after capture to SPA beads. Islet perifusion experiments were performed on mouse islets loaded into a Brandel Suprafusion system. Twenty islets were size-matched and loaded per perifusion chamber. Islets were perifused in KRBH containing, sequentially, 3 mM glucose, then 3 mM glucose containing 10 µM drug, 16.7 mM glucose containing 10 µM drug and finally returned to 3 mM glucose containing 10 µM drug. Insulin was measured using an insulin ELISA kit (Alpco). Fetal rat intestinal cells were isolated from e19-day old fetuses of pregnant Sprague-Dawley rats. Briefly, fetal intestines were isolated and digested in HBSS buffer containing 0.5 mg/ml collagenase (Sigma), 0.5 mg/ml of hyaluronidase (Sigma) and 0.05 mg/ml of deoxyribonuclease I (Roche) for 30 minutes at 37°C. The digestion was quenched using HBSS containing 15% FBS. Fetal rat intestinal cells were washed and cultured overnight in DMEM containing 5% FBS in 96-well plates. To test for secretion of GLP-1 and GIP in response to treatments, we incubated cells for 1 hour with treatments in KRBH buffer containing 0.05% BSA (w/v). GLP-1 and GIP1 secreted into the media was measured using ELISA kits specific for GLP-1 (Linco) or GIP (Millipore).

[2] = Unbound plasma drug concentration in HF/STZ mice; format: in vivo; conditions: C57BL/6j, mouse, 100 mg/kg oral, 1-hour post drug administration, by MS, read-out: free drug level in plasma

T3 sequence (O14842 whole entry): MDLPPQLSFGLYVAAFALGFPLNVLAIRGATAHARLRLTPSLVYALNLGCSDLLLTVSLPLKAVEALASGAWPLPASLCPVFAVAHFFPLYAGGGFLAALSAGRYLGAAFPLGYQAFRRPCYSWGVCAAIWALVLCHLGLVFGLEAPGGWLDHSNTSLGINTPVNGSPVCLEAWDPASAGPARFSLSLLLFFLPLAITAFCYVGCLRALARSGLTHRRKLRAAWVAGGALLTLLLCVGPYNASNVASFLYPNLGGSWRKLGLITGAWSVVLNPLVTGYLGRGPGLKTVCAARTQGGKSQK
T2 sequence (O15552 whole entry, species assumed): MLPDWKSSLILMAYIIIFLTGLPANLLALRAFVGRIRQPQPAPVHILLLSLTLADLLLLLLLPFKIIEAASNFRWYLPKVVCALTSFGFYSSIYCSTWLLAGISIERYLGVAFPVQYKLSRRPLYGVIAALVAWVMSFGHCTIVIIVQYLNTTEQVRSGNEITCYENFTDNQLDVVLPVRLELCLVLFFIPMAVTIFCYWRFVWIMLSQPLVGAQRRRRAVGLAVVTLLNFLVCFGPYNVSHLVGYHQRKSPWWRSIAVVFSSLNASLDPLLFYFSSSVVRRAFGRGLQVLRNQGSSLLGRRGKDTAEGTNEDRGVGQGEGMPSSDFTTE
Chain of PPAR gamma (P37231 whole entry): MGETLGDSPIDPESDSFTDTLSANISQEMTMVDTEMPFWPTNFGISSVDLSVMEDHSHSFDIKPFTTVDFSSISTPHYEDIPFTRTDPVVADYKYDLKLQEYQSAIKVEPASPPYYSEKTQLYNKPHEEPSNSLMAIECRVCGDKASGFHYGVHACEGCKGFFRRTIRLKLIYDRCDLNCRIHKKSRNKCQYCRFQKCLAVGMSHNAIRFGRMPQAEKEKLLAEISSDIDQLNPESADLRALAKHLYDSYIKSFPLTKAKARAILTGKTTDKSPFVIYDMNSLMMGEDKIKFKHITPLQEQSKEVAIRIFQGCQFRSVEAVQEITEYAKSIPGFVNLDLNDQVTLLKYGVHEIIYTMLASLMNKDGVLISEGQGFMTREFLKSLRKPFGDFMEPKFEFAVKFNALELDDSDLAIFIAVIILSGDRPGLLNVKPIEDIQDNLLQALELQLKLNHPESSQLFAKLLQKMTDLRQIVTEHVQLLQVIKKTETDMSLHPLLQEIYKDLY
T1 sequence (O14843 whole entry, species assumed): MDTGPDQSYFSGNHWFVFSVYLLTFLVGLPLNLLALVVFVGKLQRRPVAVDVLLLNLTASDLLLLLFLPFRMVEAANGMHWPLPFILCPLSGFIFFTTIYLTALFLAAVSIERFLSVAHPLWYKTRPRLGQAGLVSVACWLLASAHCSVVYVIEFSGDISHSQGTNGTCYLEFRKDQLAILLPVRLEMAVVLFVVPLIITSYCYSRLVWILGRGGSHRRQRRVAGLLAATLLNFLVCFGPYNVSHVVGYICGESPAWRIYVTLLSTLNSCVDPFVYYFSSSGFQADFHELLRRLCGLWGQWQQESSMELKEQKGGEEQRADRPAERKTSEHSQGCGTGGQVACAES

In the case of `COc1ccc(F)c(-c2ccc(COc3cccc([C@@H](CC(=O)O)C4CC4)c3)cc2C2=CCCC2(C)C)c1` [AM-1638], the “IP production efficacy, fold greater than AMG 837” value (human islet cells) is reported as 8–10 ×, the “activation of PPAR gamma” value (PPAR gamma) is reported as “did not activate” and the “improvement in pre- and post-challenge glucose levels” value ([1]; OGTT, single oral dose) is reported as “evident in wild type”. For the same molecule, the “plasma GLP-1 levels” value ([1]; single dose 100 mg/kg) was “elicited an increase”, the “activation of GPR41 (FFAR3)” value (GPR41 (FFAR3)) was “did not activate” and the GIP secretion (HF/STZ mice) was “stimulated secretion of GIP”. For the same molecule, the blood glucose levels (HF/STZ mice; no glucose challenge) was “stabilized blood glucose levels”, the “plasma GLP-1 and insulin levels” value (HF/STZ mice; no glucose challenge, compared with AMG 837) was “markedly greater increase” and the “activation of GPR43 (FFAR2)” value (GPR43 (FFAR2)) was “did not activate”. For the same molecule, the “inositol phosphate accumulation, fold increase compared to AMG 837” value (GLUTag cells) was 3–4 fold, the “intrinsic activity, fold greater than AMG 837” value (GPR40) was about 2 fold and the EC50 (GPR40; 1-hour accumulation, read-out: Half-maximal potency) was 13.1 ± 1.1 nM. The “insulin stimulation compared to vehicle control” value (mouse islets; 3 mM glucose) was “neither AMG 837 nor AM-1638 stimulated insulin”, the insulin secretion (mouse islets; 16.7 mM glucose) was “increased both first and second phase insulin secretion” and the concentration at 1 h [2] was 363 ± 48 nM.
